Reference: patent US12532882B2, “Biocide composition and methods of use” (priority 2017, dated 2026)

Tests used:
clubroot resting spores [1] = test: Clubroot resting spore mortality by Evans blue staining, separate test with AES-100; details: all concentrations above 1.5%
clubroot resting spores [2] = test: Clubroot resting spore mortality by Evans blue staining (Example 5); details: all concentrations above 1.5%
clubroot spores = test: Clubroot resting spore mortality by Evans blue staining (Example 2); details: positive control, 2% concentration
seeds = test: Seed germination in soils saturated with product; details: soils saturated with 2% solution

## OCl [sodium hypochlorite]
Clubroot resting spores [1]
  mortality of clubroot resting spores: 100%
Clubroot resting spores [2]
  mortality of clubroot resting spores: 100%
Clubroot spores
  resting spore mortality: 100%
seeds
  seed germination: no seeds germinated
